{"source": "paper PMC7168207", "about": "“Dibasic Derivatives of Phenylcarbamic Acid as Prospective Antibacterial Agents Interacting with Cytoplasmic Membrane” (Antibiotics, 2020)", "test_in_all_cases": "synergy with antibiotics (FIC index, checkerboard)", "key": {"MRSA 63718": {"tested_on": "MRSA 63718", "type": "cell-based, Staphylococcus aureus", "conditions": "in the combination of that line", "from_the_text": "(§1) Representatives from various classes were chosen in order to study the potential difference in synergistic activity according to the diverse mechanisms of action and resistance of these drugs. The method of minimal fractional inhibitory concentration (FIC) index (FICI) in a microtitration plate was used. FICI ≤ 0.5 means synergy; 0.5 < FICI < 1 means additivity; 1 ≤ FICI < 4 means indifference; and FICI ≥ 4 means antagonism.\n(§2) For synergy effect study, a method of fractional inhibitory concentration was used. […] Raw H was used for the evaluation of MIC(A); column 12 was used for evaluation of MIC(B). The plate was inoculated by the bacterial suspension to reach final concentration of 5 × 10^5 CFU/mL in the wells. The fractional inhibitory concentration (FIC) index was calculated using the concentrations in the first nonturbid (clear) well found in each row and column along the turbidity/nonturbidity interface. To interpret the combined effect, the lowest FICI was used. A ΣFIC ≤ 0.5 means synergy; 0.5 < ΣFIC < 1 means additivity; 1 ≤ ΣFIC < 4 means indifference; and ΣFIC ≥ 4 means antagonism. The tests were made in duplicate, and the results were averaged."}, "VRE 725B": {"tested_on": "VRE 725B", "type": "cell-based, Enterococcus faecalis", "conditions": "combination with VAN, data not shown", "from_the_text": "as §1\nThe used VRE strains were isolated from American crows by Oravcova et al., and their genetic profiles were characterized. All the VRE strains were carrying genes vanA, tetM, and ermB. Strains VRE 368 and VRE 725B carried gene aac, which provided acquired aminoglycoside resistance.\nas §2"}, "MRSA SA 3202": {"tested_on": "MRSA SA 3202", "type": "cell-based, Staphylococcus aureus", "conditions": "in the combination of that line", "from_the_text": "as §1, §2"}}}
{"smiles": "CCCCCCOc1cccc(NC(=O)OC(CN(CCC)CCC)CN2CCCC2)c1.Cl.Cl", "note": "(stereo not shown) [1g, 1-[3-(dipropylammonio)-2-({[3-(hexyloxy)phenyl]carbamoyl}oxy)propyl]pyrrolidinium dichloride]", "values": [{"measurement": "concentrations of the tested compound/clinically used antibiotic providing additivity or synergy", "setting": "MRSA 63718", "value": 2, "unit": "µg/mL"}, {"measurement": "effect of the combination with VAN", "setting": "VRE 725B", "value": "indifferent effect"}]}
{"smiles": "CCCCCCCOc1cccc(NC(=O)OC(CN(CCC)CCC)CN2CCCC2)c1.Cl.Cl", "note": "(stereo not shown) [1h, 1-[3-(Dipropylammonio)-2-({[3-(heptyloxy)phenyl]carbamoyl}oxy)propyl]pyrrolidinium dichloride]", "values": [{"measurement": "concentrations of the tested compound/clinically used antibiotic providing additivity or synergy", "setting": "MRSA SA 3202", "value": 4, "unit": "µg/mL"}, {"measurement": "effect of the combination with VAN", "setting": "VRE 725B", "value": "indifferent effect"}]}
